{
  "source": "patent US9109266B2",
  "about": "“Process of producing sugar composition comprising D-psicose and D-allose via strong alkaline isomerization of D-glucose/D-fructose or alkaline pre-treatment of D-glucose/D-fructose followed by isomerization in the presence of a basic ion exchange resin” (MATSUTANI CHEMICAL INDUSTRY CO., LTD., priority 2009, dated 2015)",
  "origin": "cited, not measured here",
  "key": {"[1]": {"conditions": "for Body fat decrement ratio (%) / Body weight decrement ratio (%) / Feed intake decrement ratio (%): compared with control group; for reduction of blood sugar level / reduction of insulin level: reports 1 and 2"}, "[2]": {"conditions": "non-patent reference 10 (report 4)"}, "[3]": {"conditions": "D-psicose administration; non-patent reference 11"}, "[4]": {"conditions": "Report 2, D-allose at 3% in total solids"}, "[5]": {"conditions": "Report 1, D-psicose at 5% in total solids"}},
  "note": "Like-named read-outs stand apart in the source and are kept apart here.",
  "data": [
    {"smiles": "O=C[C@H](O)[C@H](O)[C@H](O)[C@H](O)CO", "note": "[D-allose]", "values": [
      {"measurement": "Body fat decrement ratio (%)", "setting": "[1]; [4]", "result": 19, "unit": "%"},
      {"measurement": "Body weight decrement ratio (%)", "setting": "[1]; [4]", "result": 17, "unit": "%"},
      {"measurement": "Feed intake decrement ratio (%)", "setting": "[1]; [4]", "result": 8, "unit": "%"},
      {"measurement": "reduction of blood sugar level", "setting": "[1]", "result": "No significant reduction"},
      {"measurement": "reduction of insulin level", "setting": "[1]", "result": "No significant reduction"}
    ]},
    {"smiles": "O=C[C@@H](O)[C@@H](O)[C@H](O)[C@H](O)CO", "note": "[D-mannose]", "values": [
      {"measurement": "contribution to body weight", "setting": "[2]", "result": "never makes any contribution"},
      {"measurement": "contribution to the amount of feed intake", "setting": "[2]", "result": "never makes any contribution"}
    ]},
    {"smiles": "O=C(CO)[C@H](O)[C@H](O)[C@H](O)CO", "note": "[D-psicose]", "values": [
      {"measurement": "Body fat decrement ratio (%)", "setting": "[1]; [5]", "result": 15, "unit": "%"},
      {"measurement": "Body weight decrement ratio (%)", "setting": "[1]; [5]", "result": 6, "unit": "%"},
      {"measurement": "Feed intake decrement ratio (%)", "setting": "[1]; [5]", "result": 6, "unit": "%"},
      {"measurement": "reduction of blood sugar level", "setting": "[1]", "result": "No significant reduction"},
      {"measurement": "reduction of insulin level", "setting": "[1]", "result": "No significant reduction"},
      {"measurement": "intra-day variation of insulin level", "setting": "[3]", "result": "no reduction of insulin level"}
    ]}
  ]
}
